Source: patent publication US9669016B2, “Antiparasitic effect of Bis[3,5-Bis(Benzylidene)-4-Oxo-1-Piperidinyl]amide Derivatives” (priority 2014, dated 2017)
Read-outs that look alike come from different tables or passages of the source.

Key:
[1] = test system: L. major metacyclic promastigotes; experiment: Murine model for cutaneous leishmaniasis (footpad infection); type: in vivo, BALB/c mice; settings: for footpad swelling: 10^5 L. major metacyclic promastigotes, intraperitoneal daily treatment
Method: The in vivo experiments were comprised of four groups of five mice each: (1) infected, but not treated [control for the infection—100 μL of DMSO per day, drug diluent]; (2) treated with NC884, NC901 or NC2459, but not infected with the parasites [control for drug toxicity]; (3) infected with the parasites and treated with amphotericin B (8 mg/kg/day) [reference drug; positive control]; and (4) infected with the parasites and treated with NC884, NC901 or NC2459 [experimental group]. Luciferase expressing metacyclic promastigotes L. major (Freidlin V1) were obtained as described previously. Suspensions of 1×10^5 or 1×10^6 parasites per 50 μl of sterile DMEM (endotoxin-free) were injected with a 30G needle into the left hind footpad of BALB/c mice. Two weeks post-infection the compounds were administered once a day by intraperitoneal route, daily for 14 to 17 days. Twice a week, weights were recorded to monitor toxicity and the thickness of the infected footpad and the non-infected footpad was measured with digital calipers to monitor the progression of the disease. The parasitic load also was evaluated through in vivo imaging using luminescence (Kodak Image Station). The mice were injected intra-peritoneally with 150 mg/kg D-luciferin (Sigma, USA) 10 min before imaging, anesthetized with 1-2% isofluorane in oxygen during imaging and the net intensity emitted from the footpad was quantified using the KODAK Image Station software. Parasite burden was expressed as net intensity emitted from L. major infected footpad lesions normalized against the background fluorescence of uninfected mice. The presence/absence of parasites was confirmed by PCR using L. major methionine aminopeptidase (MetAP1) 1 specific primers: 5′-[…]-3′ (SEQ ID NO:1) and 5′-[…]-3′ (SEQ ID NO:2) on cDNA reverse transcribed from total RNA extracted from footpad lysate obtained by macerating footpad tissue fragments in Trizol (Invitrogen Life Technologies, United States) with the gentleMACS™ Dissociator (Miltenyi Biotec GmbH, Germany) following the manufacturer's protocol.

T. cruzi epimastigotes = experiment: Viability assay (Alamar Blue) on T. cruzi epimastigotes; type: cell-based; settings: Trypanosoma cruzi
Method: (§1) Viability assay on mammalian cells and T. cruzi epimastigotes. The cytotoxicity and anti-trypanosomal activity of the NC compounds was tested in human Hs27 fibroblasts (ATCC CRL-1634), LLC-MK2 cells (ATCC CCL-7), RAW 264.7 murine macrophages (ATCC TIB71) (American Type Culture Collection-ATCC, Manassa, Va.), mice intraperitoneal macrophages and in epimastigote forms of T. cruzi Y strain using Alamar Blue assay (Invitrogen—Life Technology, Grand Island, N.Y.). The experiments were performed as described using a range of concentration of 500 μM to 1 nM.

[2] = test system: L. major intracellular amastigotes; experiment: High-content imaging infectivity assay, L. major amastigote-infected macrophages; type: cell-based, Leishmania major; settings: for most effective concentration against L. major intracellular amastigotes / IC50: 48 h treatment; for IC50: Leishmania major, Peritoneal macrophage, in Mus musculus, in BALB/c peritoneal macrophages; for percentage of infected macrophages vs 1% DMSO control: constraints 2, 5 and 8 or more amastigotes per macrophage; for effectiveness compared with positive control amphotericin B 5 μM: percentage of infected macrophages, NC901, NC884 at 5 μM
Method: In vitro infectivity experiments were carried out to determine the activity of compounds NC901, NC884, and NC2459 against L. major intracellular amastigotes. Intraperitoneal macrophages isolated from BALB/c mice were infected with L. major metacyclic promastigotes. After the parasites were allowed to establish infection for 48 hours, the compounds were added and incubated for an additional 48 hours. The compounds anti-leishmanial activity was evaluated using the BD Pathway Bioimager™. In the analysis several constraints were used, such as 2, 5, and 8 or more amastigotes per macrophage.
In vitro evaluation of the NC drug library on infectivity experiments by high-content imaging assay. Mice intraperitoneal macrophages and human osteoblasts were placed in a microplate and infected with the amastigote forms of L. major strain Friedlin clone V1 and T. cruzi Y strain respectably, followed by treatment with NC lead compounds (as shown in Table 1). Briefly, Image acquisition and analyses of the plates were carried out using the BD Pathway 855 high-resolution fluorescence bioimager system (BD Biosciences). Filter sets appropriate for the excitation and emission spectra of Draq5 were utilized. Images from […] (3×3 montage) were acquired per well with a 20× objective. To perform the host cell segmentation and counting of parasites, the BD AttoVision™ v1.6.2 Sub Object analysis was used. Draq5 creates a background, staining the host cell and parasite nucleus, but defining the cytoplasm as well, determining this way the amount of parasites within each mammalian cell. The host cell nucleus was excluded by size difference. Subsequently, the infection index was calculated based on the mean of these triplicate values by multiplying the percentage of infected cells and the constraints used in the HCIA assay that was of 2, 3, 5, and 8 parasites per cell.

Hs27 human fibroblasts = experiment: Viability assay (Alamar Blue) on Hs27 fibroblasts; type: cell-based; settings: read-out: Mammalian cells IC50 ± SD, Hs27 Fibroblasts
Method: Rhesus monkey kidney epithelial cell LLC-MK2 (American Type Culture Collection-ATCC, Manassas, Va. # CCL-7), Hs-27 human fibroblasts (American Type Culture Collection-ATCC, Manassas, Va.), RAW 264.7 murine macrophages (American Type Culture Collection-ATCC, Manassas, Va.) U2-09 human osteoblasts (American Type Culture Collection-ATCC, Manassas, Va. # HTB-99) (American Type Culture Collection-ATCC, Manassas, Va.) cells were cultured in Dulbecco's Modified Eagle's Medium (DMEM), supplemented with 10% inactivated FBS, along with 1% of 10,000 units/ml penicillin and 10 mg/ml streptomycin in 0.9% sodium chloride. Intraperitoneal BALB/c mice macrophages were obtained and cultured in DMEM high-glucose, +L-glu, supplemented with 10% FBS (inactivated). The procedure was performed minimizing the distress and pain for the animals following the NIH guidance and animal protocol approved by UTEP's Institutional Animal Care and Use Committee (IACUC).
as §1
The statistical significance (p-value) of the compound's cytotoxicity was calculated using the General Linear Mixed Model Analysis. This analysis was used to test the linear effect of the logarithm of dose on the logit transformation of the percent survival. The IC50 was obtained as the exponent of the negative ratio of the y-intercept and the slope of the fitted regression line (SAS Software, Version 9.2). […] All experiments had statistical significance determined at p≦0.05(*), p≦0.01(**), and p≦0.001(***).

[3] = 96 h incubation, read-out: T. cruzi Epimastigotes EC50
[4] = 96 hour incubation, read-out: EC50, T. cruzi epimastigotes

SMILES | footpad swelling [1] | EC50 (T. cruzi epimastigotes; [3]) | EC50 (T. cruzi epimastigotes; [4]) | most effective concentration against L. major intracellular amastigotes [2] | IC50 [2] | percentage of infected macrophages vs 1% DMSO control [2] | effectiveness compared with positive control amphotericin B 5 μM [2] | IC50 (Hs27 human fibroblasts) | time until measurable lesions start developing ([1]; 10^5 parasites) | mice never developing a lesion ([1]; 10^5 parasites, monitored up to twelve weeks post-infection) | lesion size at 33 days post-infection ([1]; 10^6 parasites, 8 mg/kg/day extended treatment, p≦0.05) | PCR of L. major MetAP1 gene in footpad ([1]; mouse displaying no lesion)
CN(C)CC1CCC(CN(C)C)C1=O (stereo not shown) [NC884] | reduced the footpad swelling similar to that of the positive control | 475 nM | 475 nM | 5 µM | 937 ± 130 nM | significant decrease in the percentage of infected cells | not as effective as the positive control amphotericin B | 16300 ± 170 nM |  |  |  | 
CN(C)CC1CCCC(CN(C)C)C1=O (stereo not shown) [NC901] | reduced the footpad swelling similar to that of the positive control | 468 nM | 468 nM | 5 µM | 1870 ± 200 nM | significant decrease in the percentage of infected cells | not as effective as the positive control amphotericin B | 16000 ± 120 nM |  |  |  | 
O=C1/C(=C/c2ccccc2)CN(C(=O)C(=O)N2C/C(=C\c3ccccc3)C(=O)/C(=C/c3ccccc3)C2)C/C1=C\c1ccccc1 [NC2459] | much lower amount of swelling than all groups | 20 nM | 20 nM | 1.25 µM | 625 ± 110 nM | significant decrease in the percentage of infected cells | significantly more effective | 10010 ± 90 nM | 6-7 weeks post-infection | one out of the three mice never developed a lesion | significantly smaller lesion than all other groups | no traces of L. major genomic DNA
